Laboratory results taken from patent US11718585B2, “Bis-cyclic guanidines as antibacterial agents” (University of South Florida, priority 2017, dated 2023).

How the values were obtained:
six bacteria strains = test: MIC, summary statements over the panel of tested bacteria; format: cell-based
Method: (§1) Minimum Inhibitory Concentrations (MICs) against Bacteria. The antimicrobial activity of the compounds was tested on the following six bacteria strains: K. pneumoniae (ATCC 13383), P. aeruginosa (ATCC27853), E. coli (ATCC 25922), vancomycin-resistant Enterococcus faecalis (ATCC 700802), Methicillin-resistant S. aureus (MRSA, ATCC 33591), Methicillin-resistant S. epidermidis (MRSE, RP62A). The procedures were followed as reported previously (Hancock et al., Immunobiology 2006, 211, 315-322). Briefly, a single colony of each bacterium was inoculated in 3 mL TSB medium and incubated overnight at 37° C. Then the bacteria culture was diluted at 1:100 and the bacteria were allowed to grow to mid-logarithmic phase. Next, 50 μL of 2-fold serial dilutions of compounds (0.1-25 μg/mL) were added the 96-well plate containing aliquots of 50 μL of bacteria suspension (1×10^6 CFU/mL) in each well. The mixture was incubated at 37° C. for 16 h, and their absorption at 600 nm wavelength was read on a Biotek Synergy HT microtiter plate reader. […] The experiments were repeated at least three times with duplicates each time. HC50 means the concentration causing 50% hemolysis.

E. coli [1] = test: Time-kill study; format: cell-based; settings: for time to completely remove/kill all bacteria: 12.5 μg/mL
Method: The killing activity was monitored for the first 2 h. The concentrations for compound 11 were 2×MIC, 4×MIC, and 8×MIC, respectively.
Time-kill studies were conducted to investigate the bacterial killing kinetics of compounds 11 and 12 by using E. Coli. Briefly, the bacteria […] grew to mid-logarithmic phase in TSB medium, from which the suspension (10^6 CFU/ml) was made. The suspension was incubated with different concentrations of 11 or 12 for 10 min, 30 min, 1 h and 2 h respectively. The mixtures were diluted by 10^2 to 10^4 fold and spread on TSB agar plates. After incubation at 37° C. overnight, the colonies on the plates were counted and plotted against the incubation time. […] Cell colonies were counted in agar plates at 12.5, 25, and 50 μg/mL. Compound 11 at the concentration of 12.5 or 25 μg/mL completely removed all bacteria in 2 hours, and at 50 μg/mL it completely removed bacteria in 0.5 hour. Compound 12 killed E. Coli completely in 0.5 hour at the concentration of 12.5 μg/mL.

S. aureus = test: Fluorescence microscopy (DAPI/PI) of bacterial membranes, S. aureus; format: cell-based; settings: 10 μg/mL, 2 h
Method: (§2) Fluorescence microscopy studies were conducted to evaluate the ability of compound 12 to compromise membranes of S. aureus (Gram-positive bacterium) and E. coli (Gram-negative bacterium). Fluorescent agent 4′,6-diamidino-2-phenylindole (DAPI) was used to stain membranes of bacterial cells with blue fluorescence regardless of cell viability, and the red fluorescence of propidium iodide (PI) due to the DNA intercalation was used to stain impaired membranes. After MRSA and E. Coli grew to mid-logarithmic phase, the compound 12 was incubated with the bacteria at 37° C. for 2 h. The mixture was then centrifuged at 5000 rpm for 15 min. The cell pellets were washed with the PBS buffer for three times, and incubated with PI (5 μg/mL) and DAPI (10 μg/mL) for 15 min sequentially on ice in the dark. The mixture was then centrifuged and the pellets were washed with the PBS buffer. Next, 10 μL of the samples were placed on chamber slides and observed under Zeiss Axio Image Zloptical microscope using 100× oil-immersion objective.

E. coli [2] = test: Fluorescence microscopy (DAPI/PI) of bacterial membranes, E. coli; format: cell-based; settings: 10 μg/mL, 2 h
Method: as §2

MRSA = test: Drug-resistance study, 14 passages, MRSA; format: cell-based, S. aureus; settings: incubated at ½ MIC every day
Method: (§3) Bacterial resistance tests were conducted using compound 12. The compound was incubated with either MRSA or E. Coli in the well at the concentration of half-MIC (½ MIC, 10^6 CFU/ml) every day and tested for their activity through 14 successive passages.

E. coli [3] = test: Drug-resistance study, 14 passages, E. coli; format: cell-based; settings: incubated at ½ MIC every day
Method: as §3

E. coli (ATCC 25922) = test: Minimum inhibitory concentration (MIC) against E. coli; format: cell-based; settings: Escherichia coli, ATCC25922; Gram −; 16 h, 37° C.
Method: as §1

[4] = test system: P. aeruginosa (ATCC27853); test: MIC against P. aeruginosa; format: cell-based
Method: as §1

[5] = test system: K. pneumoniae (ATCC 13383); test: MIC against K. pneumoniae; format: cell-based; settings: Klebsiella pneumoniae, ATCC13383; Gram −; 16 h, 37° C.
Method: as §1

[6] = test system: Methicillin-resistant S. aureus (MRSA, ATCC 33591); test: MIC against MRSA; format: cell-based; settings: Staphylococcus aureus; Gram +; 16 h, 37° C.
Method: as §1

[7] = test system: Methicillin-resistant S. epidermidis (MRSE, RP62A); test: MIC against MRSE; format: cell-based; settings: Staphylococcus epidermidis, Gram +, 16 h, 37° C.
Method: as §1

[8] = test system: vancomycin-resistant Enterococcus faecalis (ATCC 700802); test: MIC against VRE; format: cell-based; settings: Gram +; 16 h, 37° C.
Method: as §1

[9] = test system: human red blood cells (hRBCs); test: Hemolytic assay; format: cell-based; settings: concentration causing 50% hemolysis, 37° C., 1 h
Method: Hemolytic assays. The freshly drawn, K2EDTA treated human red blood cells (hRBCs) were washed with 1×PBS buffer, and centrifuged at 3500 rpm for 10 min. The step was repeated until the supernatant became clear. The supernatant was removed, and the RBCs were diluted into 5% v/v suspension. 50 μL of the suspension was incubated with 50 μL of compounds of different concentrations at 37° C. for 1 h. The mixture was centrifuged at 3500 rpm for 10 min. Subsequently, to 30 μL of the supernatant 100 μL PBS was added, and the absorbance of the mixture at 540 nm was read on a Biotek Synergy HT plate reader. The positive control was 2% Triton X-100, and the negative control was 1×PBS alone. The hemolysis activity was calculated by the formula % hemolysis=(Abssample−AbsPBS)/(AbsTriton−AbsPBS)×100%. The experiment was repeated at least three times with duplicates each time.

N#CNc1cccc(NC(=O)CN2C[C@H](Cc3ccccc3)N(CCCc3ccccc3)C2=N)c1 [Compound 7]
antibacterial activity against the tested bacteria (in words) (six bacteria strains): negligible activity

N=C1N(CC(=O)Nc2cccc(NC(N)=O)c2)C[C@H](Cc2ccccc2)N1CCCc1ccccc1 [Compound 8]
antibacterial activity against the tested bacteria (in words) (six bacteria strains): negligible activity

CCCCCCN1C(=N)N(CC(=O)Nc2ccc(NC(=O)CN3C[C@H](Cc4ccccc4)N(CCCCCC)C3=N)cc2)C[C@@H]1Cc1ccccc1 [Compound 11]
time to completely remove/kill all bacteria (E. coli [1]): 2 h
time to completely remove bacteria (E. coli [1]; 50 μg/mL): 0.5 h
antibacterial activity against the tested bacteria (in words) (six bacteria strains): potent and broad-spectrum activity

CCCCCCN1C(=N)N(CC(=O)Nc2cccc(NC(=O)CN3C[C@H](Cc4ccccc4)N(CCCCCC)C3=N)c2)C[C@@H]1Cc1ccccc1 [Compound 12]
membrane disruption (red fluorescence under the PI channel) (S. aureus): membranes of these bacteria were disrupted
membrane disruption (red fluorescence under the PI channel) (E. coli [2]): membranes of these bacteria were disrupted
time to completely remove/kill all bacteria (E. coli [1]): 0.5 h
MIC after 14 passages (MRSA): virtually constant
MIC after 14 passages (E. coli [3]): virtually constant
antibacterial activity against the tested bacteria (in words) (six bacteria strains): potent and broad-spectrum activity

CCCCCCN1C(=N)N(CC(=O)NCCCCNC(=O)CN2C[C@H](Cc3ccccc3)N(CCCCCC)C2=N)C[C@@H]1Cc1ccccc1 [Compound 13]
MIC (E. coli (ATCC 25922)): 0.75 to 1.5 mg/L
activity against P. aeruginosa (in words) [4]: reduced activity

CCCCCCN1C(=N)N(CC(=O)NCCCCCCNC(=O)CN2C[C@H](Cc3ccccc3)N(CCCCCC)C2=N)C[C@@H]1Cc1ccccc1 [Compound 14]
activity against P. aeruginosa (in words) [4]: reduced activity

CCCCCCN1C(=N)N(CC(=O)NCCCCCCCCNC(=O)CN2C[C@H](Cc3ccccc3)N(CCCCCC)C2=N)C[C@@H]1Cc1ccccc1 [Compound 15]
activity against P. aeruginosa (in words) [4]: reduced activity

CCCCCCN1C(=N)N(CC(=O)NCCCOCCOCCOCCCNC(=O)CN2C[C@H](Cc3ccccc3)N(CCCCCC)C2=N)C[C@@H]1Cc1ccccc1 [Compound 16]
MIC (E. coli (ATCC 25922)): 1.5 to 3 mg/L
MIC ([4]; Pseudomonas aeruginosa, ATCC27853, Gram −, 16 h, 37° C.): > 25 mg/L
MIC [5]: > 25 mg/L
MIC [6]: 0.75 mg/L
MIC [7]: 1.5 mg/L
MIC [8]: 6 to 12 mg/L
Hemolysis (HC50) [9]: 200 µg/mL
antibacterial activity against the tested bacteria (in words) (six bacteria strains): reduced activity

CCCCCCCCN1C(=N)N(CC(=O)Nc2ccc(NC(=O)CN3C[C@H](Cc4ccccc4)N(CCCCCCCC)C3=N)cc2)C[C@@H]1Cc1ccccc1 [Compound 17]
antibacterial activity against the tested bacteria (in words) (six bacteria strains): decreased activity

CCCCCCCCN1C(=N)N(CC(=O)Nc2cccc(NC(=O)CN3C[C@H](Cc4ccccc4)N(CCCCCCCC)C3=N)c2)C[C@@H]1Cc1ccccc1 [Compound 18]
antibacterial activity against the tested bacteria (in words) (six bacteria strains): decreased activity

CCCCCCN1C(=N)N(CC(=O)Nc2cccc(NC(=O)CN3C[C@H](CC(C)C)N(CCCCCC)C3=N)c2)C[C@@H]1CC(C)C [Compound 23]
MIC [6]: 0.75 to 1.5 mg/L
antibacterial activity against the tested bacteria (in words) (six bacteria strains): slightly less effective
